Data from paper PMC10712727, “Safety, Tolerability, and Pharmacokinetics of Senaparib, a Novel PARP1/2 Inhibitor, in Chinese Patients With Advanced Solid Tumors: A Phase I Trial” (The Oncologist, 2023).
“Also recorded” adds a separate entry of the source.

Tested on: patients with advanced solid tumors
Test: Dose-limiting toxicities, MTD and RP2D determination (modified 3 + 3 dose escalation)
Type: in vivo
Method: Dose escalation was conducted using a modified Fibonacci 3 + 3 method (Supplementary Fig. S1).[17] Patients were administered oral senaparib from a planned starting dose of 2 mg once daily (QD), with preliminary dose escalation to 120 mg via nine dose groups, in order of their entry into the study. At a given dose level, each patient received a single dose of senaparib followed by a 7-day washout period. They then entered a continuous dosing period to confirm the safety and PK profile, in which they received senaparib QD from day 1 to day 21 of each 3-week cycle. Progression to the next higher dose required approval from the Data Safety Monitoring Committee (DSMC) upon review of the safety and PK data of the previous dose. […]
DLTs were predefined toxicities (Supplementary Table S2) recorded over the 7 days following the single-dose administration of senaparib and during the first treatment cycle (day 1-day 21) for each dose group in the dose-escalation period only. […] Plasma concentrations of senaparib were determined using high-performance liquid chromatography-tandem mass spectrometry. Tumor response was assessed every 6 weeks per RECIST v1.1,[16] recording objective response rate (ORR), disease control rate (DCR), duration of response (DOR), and progression-free survival (PFS) by dose level for all patients and for those harboring BRCA^mut+ tumors.

## O=C(c1cc(Cn2c(=O)[nH]c(=O)c3c(F)cccc32)ccc1F)N1CCN(c2ncccn2)CC1 [Senaparib]
DLT observation period, dose escalation, 2-120 mg QD and 50 mg BID
  Dose-limiting toxicities (DLTs): No dose-limiting toxicities were observed; also recorded: No DLTs were observed
Doses up to 120 mg QD
  Maximum tolerated dose (MTD): not reached
